Data from patent publication US11324798B2, “Materials and methods for treatment of inflammation” (CYTOGEL PHARMA, LLC, priority 2010, dated 2022).
Several values for one entry are separate records, joined by “and”; a condition that tells them apart may be missing. Equal entries are not always repeated.

System: SP release from isolated rat tracheae
Test: Electrical field stimulation (EFS)-evoked release of SP from isolated rat tracheae, radioimmunoassay
Assay type: cell-based
Settings: for SP Release into the incubation medium / Absolute release of SP: individual experiments 1-5; for SP Release into the incubation medium, Mean / Absolute release of SP, Mean: mean of 5 experiments
Method: For the in vitro release experiments, a 10 mg/ml (14.62 mM; MW 684) stock solution of CYT-1010 was made in DMSO, which was further diluted with the oxygenated Krebs solution used in the organ bath: 5.5 μl of this CYT-1010 stock solution was added into 40 ml Krebs to make the highest applied 2 μM concentration of compound CYT-1010. Further dilutions to obtain the lower concentrations were prepared with Krebs solution.
The incubation media containing the respective CYT-1010 concentrations were administered in the stimulated and post-stimulated 8-min fractions.
Since even the highest, 2 μM, concentration of CYT-1010 solution contained negligible amount of DMSO, simple Krebs solution was used in the control experiments.
Rats were exsanguinated in deep anaesthesia (sodium thiobarbital, 50 mg/kg i.p.), then the whole trachea was removed and cleaned of fat and adhering connective tissues. Tracheae from two rats were placed into the same 1.8 ml organ bath to obtain sufficient amount of released peptide and perfused (1 ml/min) with pH-(7.2) controlled oxygenized Krebs solution for 60 minutes (equilibration period) at 37° C. temperature. After discontinuation of the flow, the solution was changed three times for eight minutes to produce pre-stimulated, stimulated, post-stimulated fractions.
Electrical field stimulation (40 V, 0.1 ms, 10 Hz for 120 s; 1200 pulses) was performed to elicit neurotransmitter release at the beginning of the second 8-minute period. Stimulation with 0.1 ms pulse width selectively activates very fast Na^+ channels, which are only present in the membrane of neural structures (Birmingham and Wilson, 1963; Coburn and Tomita 1973; Szolcsányi and Barthó, 1982); therefore, it excites nerve endings without influencing other excitable cells in the tracheae such as smooth muscle cells.
Krebs solution was used in the pre-stimulated fraction for determining the basal CGRP outflow. During the stimulated and post-stimulated fractions, the incubation medium contained the examined concentrations of CYT-1010 (10, 100, 500, 1000 and 2000 nM) in separate experiments, and only one concentration was applied to the same tracheae to avoid neuropeptide depletion. In each group, 5 experiments were performed in parallel in 5 perfusion systems to provide n=5 data per group (10 tracheae per group).
60 male Wistar rats (250-300 g) altogether were divided into 6 experimental groups: Group 1: controls (n=10); Group 2: 10 nM CYT-1010 (n=10); Group 3: 100 nM CYT-1010 (n=10); Group 4: 500 nM CYT-1010 (n=10); Group 5: 1000 nM CYT-1010 (n=10); and Group 6: 2000 nM CYT-1010 (n=10). The total study was performed on three experimental days, two groups every occasion.
Calcitonin gene-related peptide (CGRP) and substance P (SP) concentrations were determined from 400-400 μl samples of organ fluid of the preparations by means of radioimmunoassay methods described in Nemeth et al., 1996, 1998, 1999, 2006; Helyes et al., 1997, 2001, 2006; Borzsei et al., 2008). Each of these publications is incorporated herein by reference in its entirety.
The released amount of the peptides CGRP and SP was calculated as fmol peptide per mg wet tissue (trachea). The absolute release in response to EFS in each experiment was calculated by adding peptide release in the second and third 8-min fractions and then taking off the basal release measured in the first (pre-stimulated) fraction. The detection limits of the RIA assays were 0.2 fmol/tube and 2 fmol/tube for CGRP and SP, respectively.

NC(Cc1ccc(O)cc1)C(=O)NC1CCCCNC(=O)C(Cc2ccccc2)NC(=O)C(Cc2c[nH]c3ccccc23)NC1=O [CYT-1010, H-Tyr-c-[D-Lys-Trp-Phe]]
Inhibition of EFS-evoked SP outflow (500 nM, 0.5 µM): 64.3% and 64% | Inhibition of EFS-evoked SP outflow (1000 nM (maximal inhibition), 1 µM): 71.8% and 72% | SP release, % increase above baseline (1 microM, after stimulation): 16.32% | SP Release into the incubation medium (1 microM, after stimulation (post-stimulated fraction)): 1.663 fmol/mg wet tissue and 1.966 fmol/mg wet tissue and 1.892 fmol/mg wet tissue and 1.551 fmol/mg wet tissue and 1.397 fmol/mg wet tissue | SP Release into the incubation medium, Mean (1 microM, after stimulation): 1.694 fmol/mg wet tissue | SP release, % increase above baseline (1 microM, before stimulation): 0.00% | SP Release into the incubation medium (1 microM, before stimulation (pre-stimulated fraction)): 1.398 fmol/mg wet tissue and 1.806 fmol/mg wet tissue and 1.860 fmol/mg wet tissue and 1.412 fmol/mg wet tissue and 0.805 fmol/mg wet tissue | SP Release into the incubation medium, Mean (1 microM, before stimulation): 1.456 fmol/mg wet tissue | SP release, % increase above baseline (1 microM, during stimulation): 13.32% | SP Release into the incubation medium (1 microM, during stimulation (stimulated fraction)): 1.558 fmol/mg wet tissue and 1.948 fmol/mg wet tissue and 1.992 fmol/mg wet tissue and 1.422 fmol/mg wet tissue and 1.331 fmol/mg wet tissue | SP Release into the incubation medium, Mean (1 microM, during stimulation): 1.650 fmol/mg wet tissue | Absolute release of SP (1 microM): 0.425 fmol/mg wet tissue and 0.302 fmol/mg wet tissue and 0.164 fmol/mg wet tissue and 0.149 fmol/mg wet tissue and 1.118 fmol/mg wet tissue | Absolute release of SP, Mean (1 microM): 0.432 fmol/mg wet tissue | SP release, % increase above baseline (2 microM, after stimulation): 6.72% | SP Release into the incubation medium (2 microM, after stimulation (post-stimulated fraction)): 2.348 fmol/mg wet tissue and 1.531 fmol/mg wet tissue and 2.246 fmol/mg wet tissue and 1.543 fmol/mg wet tissue and 1.944 fmol/mg wet tissue | SP Release into the incubation medium, Mean (2 microM, after stimulation): 1.922 fmol/mg wet tissue | SP release, % increase above baseline (2 microM, before stimulation): 0.00% | SP Release into the incubation medium (2 microM, before stimulation (pre-stimulated fraction)): 2.406 fmol/mg wet tissue and 1.582 fmol/mg wet tissue and 2.020 fmol/mg wet tissue and 1.132 fmol/mg wet tissue and 1.867 fmol/mg wet tissue | SP Release into the incubation medium, Mean (2 microM, before stimulation): 1.801 fmol/mg wet tissue | SP release, % increase above baseline (2 microM, during stimulation): 56.23% | SP Release into the incubation medium (2 microM, during stimulation (stimulated fraction)): 3.130 fmol/mg wet tissue and 2.398 fmol/mg wet tissue and 2.334 fmol/mg wet tissue and 2.078 fmol/mg wet tissue and 4.132 fmol/mg wet tissue | SP Release into the incubation medium, Mean (2 microM, during stimulation): 2.814 fmol/mg wet tissue | Absolute release of SP (2 microM): 0.666 fmol/mg wet tissue and 0.765 fmol/mg wet tissue and 0.540 fmol/mg wet tissue and 1.357 fmol/mg wet tissue and 2.342 fmol/mg wet tissue | Absolute release of SP, Mean (2 microM): 1.134 fmol/mg wet tissue | Effect on stimulation-evoked SP release (10-2000 nM added to the second and third fractions): significantly inhibited | EC50 (sigmoidal concentration-response curve, non-linear least square fit, 10-2000 nM, read-out: EC50 for inhibition of electrically-evoked SP release): 34 nM
